Results published in PubChem BioAssay (NCI).
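Interpolation was linear, between the two tested concentrations surrounding the appropriate level; five concentrations were tested over 48 hours in 96-well plates. GI50: concentration for 50% inhibition of growth. At the TGI there is no net growth.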

Experiments:
Test in all cases: growth of human tumour cells (NCI), 48 h
HT29 colon = system: HT29 colon
COLO 205 colon = system: COLO 205 colon
MOLT-4 leukemia = system: MOLT-4 leukemia
NCI-H23 lung = system: NCI-H23 lung
SW-620 colon = system: SW-620 colon
SF-295 CNS = system: SF-295 CNS
T-47D breast = system: T-47D breast
NCI/ADR-RES ovarian = system: NCI/ADR-RES ovarian
LOX IMVI melanoma = system: LOX IMVI melanoma
K-562 leukemia = system: K-562 leukemia

Compound	TGI (HT29 colon) [µM]	TGI (COLO 205 colon) [µM]	TGI (MOLT-4 leukemia) [µM]	TGI (NCI-H23 lung) [µM]	TGI (SW-620 colon) [µM]	TGI (SF-295 CNS) [µM]	TGI (T-47D breast) [µM]	TGI (NCI/ADR-RES ovarian) [µM]	TGI (LOX IMVI melanoma) [µM]	TGI (K-562 leukemia) [µM]	GI50 (COLO 205 colon) [µM]	GI50 (NCI/ADR-RES ovarian) [µM]
COCOc1ccc(C(=O)C(C)c2ccc(OCOC)cc2OCOC)c(O)c1 (configuration not stated)	> 100	> 100	> 100	> 100	> 100							
CCOC(=O)CCCn1nnc(C(=O)OCC)c1C(=O)OCC	> 100	> 100	> 100	> 100	> 100	> 100	> 100	> 100	> 100			
C=CCC1(O)c2ccccc2C(=O)c2c(O)ccc(O)c21 (configuration not stated)	> 62.4	26.9	> 58	56	> 100	> 51.9	> 59.2	12.1	> 50.9	> 100		
S=c1sc2c(Cl)ncnc2n1-c1ccccc1	24.1	29	56.1	31.7	35.1	25.5			16.6			
C=C(C)[C@@]1(O)O[C@H]2C[C@@]3(C)OC(=CC3=O)/C(C)=C\[C@@H]3OC(=O)[C@@]1(C)[C@H]32	40.9	35.3	40.4	> 31.6	19.5	66.9	59.2	> 100	29.2	35.4		
CN(C)CCNc1ccc(C(=O)NCCCN(C)CCCNC(=O)c2ccc(NCCN(C)C)c3c(=O)c4ccccc4[nH]c23)c2[nH]c3ccccc3c(=O)c12	0.903	0.727	2.78	2.78	2.36	1.91	2.64	> 63.8	0.286	5.27		
C/C=C/[C@@]1(OC(=O)c2ccccc2)C[C@@H]2CCCC[C@@H]21	31.7		40.2	31	48.3	33.3	36.5	41.1	44.7	56.7		
CC1(C)O[C@H]2Cn3c(c(C#N)c4ccccc43)[C@H]2O1	> 100	> 100		> 100		> 100	> 100	> 100				
CN(C)c1nc2sc3c(c2c(=O)o1)CCCC3	> 100	53.1	> 100	> 100	> 100	> 100	> 100	> 100	> 100	> 100		
O=C(CP(c1ccccc1)c1ccccc1)c1cccc(C(=O)CP(c2ccccc2)c2ccccc2)c1	> 100	> 100	48		> 100	> 100	94.8	> 100		> 100		
C1CC2=C(C1)[Se]C(=C1Sc3nsnc3S1)[Se]2	> 100	> 100	> 100	> 100	> 100	> 100	> 100	> 100	> 100			
CCOC(=O)c1cccc(NC(=O)CCl)c1	14.1	23.5	27.2	13.1	16.5	26.1	10.1	22.7	3.89	29		
O=C1c2ccccc2C2CNC1(O)c1ccccc12 (configuration not stated)	> 100	> 100	> 100	> 100	> 100	> 100	> 100	> 100	> 100	> 100		
COc1c2cc([N+](=O)[O-])cc1CNC(=O)CN1CCOCCOCCN(CCOCCOCC1)CC(=O)NC2	> 100	> 100	> 100	> 100	> 100	> 100	> 100	> 100	> 100	> 100		
O=C(COc1ccc(OCC(=O)N2C(=O)CC(=O)N(c3ccccc3)C2=S)cc1)N1C(=O)CC(=O)N(c2ccccc2)C1=S	> 100	> 100	> 100	> 100	> 100	> 100		> 100		> 100		
Clc1ccc2c(SCC3CO3)c3ccccc3nc2c1 (configuration not stated)	3.23	10.7	4.3	> 100	5.24	42.1	4.97	7.24	> 100	4.43		
CC1=NN(C(=O)CSc2nnc(SCC(=O)N3N=C(C)CC3(O)c3ccccc3)s2)C(O)(c2ccccc2)C1 (configuration not stated)		> 100	> 100	> 100	> 100	> 100		68.3	> 100	> 100		
Cc1ccc(C)n1-c1ccccc1C1SCCCS1	> 100	> 100	> 100	> 100	> 100	> 100		> 100	> 100	> 100		
O=C1C2CCCCC2C(=O)N1n1c(Cc2ccc(Cl)cc2)n[nH]c1=O (configuration not stated)	> 100	> 100	> 100	> 100	> 100	> 100	> 100	> 100	> 100	> 100		
COc1cc(/C=C/C(=O)OCC23CC[C@@]4(C(=O)O)CCC(C)[C@H](C)C4C2=CCC2[C@@]4(C)CC[C@H](O)C(C)(C)C4CC[C@]23C)ccc1O (some centres not stated)	42		76.2	15.6	> 100	73.9	> 100	44.9	34.2	> 100		
CO/C(=N\N=C\c1cc(OC)ccc1OC)c1ccncc1		> 10	> 10	> 10	> 10	> 10	> 10	> 10	> 10	> 10		
CCCC(=O)O	> 18700	9160	> 18700	> 18700	> 18700	> 18700	9400	> 18700	8470		2550	1460
